Measurements: patent US20240148709A1, “METHODS OF TREATING EYE PAIN AND EYE DISORDERS” (Aisa Pharma, Inc., priority 2022, published 2024)
Values joined by “and” are separate entries in the source; they are usually repeats but may differ in a detail not shown here. Equal entries are not always repeated.

System: participants with SSc-RP
Experiment: Scleroderma Health Assessment Questionnaire (SHAQ), Phase 2a study Part A
Type: in vivo, human
Procedure: Part A—double-blind, placebo-controlled, parallel-group, dose selection, will assess the safety and efficacy of two doses of cilnidipine (10 mg and 20 mg), alone and in combination with tadalafil. A total of 36 participants will be randomized to one of six prespecified treatment arms. Refer to FIG. 1 for treatment arms in Part A of the study. Dosing last for 12 (±2) days in which participants will self-administer daily doses of assigned treatment in the morning. Each participant will take one capsule and one tablet to blind the active therapy being received.
The standard, validated, patient reported outcome measures tool for SSc patients, the SHAQ, will be collected at the time points specified in the study schedules (FIG. 2 and FIGS. 3A and 3B) to assess the participant's quality of life. The SHAQ includes a Raynaud's VAS that will also be reported separately.
Results: Patients in the study were administered the Scleroderma Health Assessment Questionnaire (SHAQ) at the time of study entry and during clinic visits following the treatment period. The study is a two-part, parallel arm design, prospective, double-blind, randomized study conducted in Australia (Flinders Medical Center). 27 patients were randomized into the first phase of the study, following which a DSMB meeting was held, which reviewed data on the primary study endpoint and key Raynaud's secondary endpoints. Data on the SHAQ was not available for the DSMB to review. The mITT population, in which any data was available post treatment was 24 patients was the analysis population for this first part of the study. The second part (i.e., part B) of the study will randomize 36 patients in a double blind, randomized, prospective, placebo controlled, crossover study. In the first part (i.e., Part A) of the study for which data is presented, patients were randomized into 6 groups, cilnidipine at two doses (10 and 20 mg) alone and in combination with tadalafil 5 mg, tadalafil 5 mg alone, and placebo. […] The DSMB recommended that the study proceed into its double blind prospective cross overpowered second phase and compare cilnidipine 20 mg alone to placebo.

[1] = cilnidipine 20 mg arms (alone or + tadalafil 5 mg)

`COCCOC(=O)C1=C(C)NC(C)=C(C(=O)OC/C=C/c2ccccc2)C1c1cccc([N+](=O)[O-])c1` (stereo not shown) [Cilnidipine, cilnidipine] was tested, and the “SHAQ Visual Analog Scale-Breathing Problems, Change from Baseline, Q3” value [1] was 0.300, the “SHAQ Visual Analog Scale-Breathing Problems, In Clinic Visit (Day 12), Max” value [1] was 0.50 and the “SHAQ Visual Analog Scale-Breathing Problems, In Clinic Visit (Day 12), Mean (SD)” value [1] was 0.300 (0.2646). For the same molecule, the “SHAQ Visual Analog Scale-Breathing Problems, In Clinic Visit (Day 12), Median” value [1] was 0.400, the “SHAQ Visual Analog Scale-Breathing Problems, In Clinic Visit (Day 12), Min” value [1] was 0.00 and the “SHAQ Visual Analog Scale-Breathing Problems, In Clinic Visit (Day 12), Q1” value [1] was 0.000. The “SHAQ Visual Analog Scale-Breathing Problems, In Clinic Visit (Day 12), Q3” value [1] was 0.500, the “SHAQ Visual Analog Scale-Breathing Problems, Percent Change from Baseline, Max” value [1] was 150.0% and the “SHAQ Visual Analog Scale-Breathing Problems, Percent Change from Baseline, Mean (SD)” value [1] was −5.56 (135.742) %. The “SHAQ Visual Analog Scale-Breathing Problems, Percent Change from Baseline, Median” value [1] was −66.67%, the “SHAQ Visual Analog Scale-Breathing Problems, Percent Change from Baseline, Min” value [1] was −100.0% and the “SHAQ Visual Analog Scale-Breathing Problems, Percent Change from Baseline, Q1” value [1] was −100.00%. The “SHAQ Visual Analog Scale-Breathing Problems, Percent Change from Baseline, Q3” value [1] was 150.00%, the “SHAQ Visual Analog Scale-Intestinal Problems, Change from Baseline, Max” value [1] was 0.60 and the “SHAQ Visual Analog Scale-Intestinal Problems, Change from Baseline, Mean (SD)” value [1] was 0.300 (0.3000). For the same molecule, the “SHAQ Visual Analog Scale-Intestinal Problems, Change from Baseline, Median” value [1] was 0.300, the “SHAQ Visual Analog Scale-Intestinal Problems, Change from Baseline, Min” value [1] was 0.00 and the “SHAQ Visual Analog Scale-Intestinal Problems, Change from Baseline, Q1” value [1] was 0.000. The “SHAQ Visual Analog Scale-Intestinal Problems, Change from Baseline, Q3” value [1] was 0.600, the “SHAQ Visual Analog Scale-Intestinal Problems, In Clinic Visit (Day 12), Max” value [1] was 2.10 and the “SHAQ Visual Analog Scale-Intestinal Problems, In Clinic Visit (Day 12), Mean (SD)” value [1] was 1.133 (1.0599). The “SHAQ Visual Analog Scale-Intestinal Problems, In Clinic Visit (Day 12), Median” value [1] was 1.300, the “SHAQ Visual Analog Scale-Intestinal Problems, In Clinic Visit (Day 12), Min” value [1] was 0.00 and the “SHAQ Visual Analog Scale-Intestinal Problems, In Clinic Visit (Day 12), Q1” value [1] was 0.000. The “SHAQ Visual Analog Scale-Intestinal Problems, In Clinic Visit (Day 12), Q3” value [1] was 2.100, the “SHAQ Visual Analog Scale-Intestinal Problems, Percent Change from Baseline, Max” value [1] was 40.0% and the “SHAQ Visual Analog Scale-Intestinal Problems, Percent Change from Baseline, Mean (SD)” value [1] was 35.00 (7.071) %. The “SHAQ Visual Analog Scale-Intestinal Problems, Percent Change from Baseline, Median” value [1] was 35.00%, the “SHAQ Visual Analog Scale-Intestinal Problems, Percent Change from Baseline, Min” value [1] was 30.0% and the “SHAQ Visual Analog Scale-Intestinal Problems, Percent Change from Baseline, Q1” value [1] was 30.00%. The “SHAQ Visual Analog Scale-Intestinal Problems, Percent Change from Baseline, Q3” value [1] was 40.00%, the “SHAQ Visual Analog Scale-Pain, Change from Baseline, Max” value [1] was −0.50 and the “SHAQ Visual Analog Scale-Pain, Change from Baseline, Mean (SD)” value [1] was −1.100 (0.7937) and −1.1 (0.79). For the same molecule, the “SHAQ Visual Analog Scale-Pain, Change from Baseline, Median” value [1] was −0.800, the “SHAQ Visual Analog Scale-Pain, Change from Baseline, Min” value [1] was −2.00 and the “SHAQ Visual Analog Scale-Pain, Change from Baseline, Q1” value [1] was −2.000. The “SHAQ Visual Analog Scale-Pain, Change from Baseline, Q3” value [1] was −0.500, the “SHAQ Visual Analog Scale-Pain, In Clinic Visit (Day 12), Max” value [1] was 2.10 and the “SHAQ Visual Analog Scale-Pain, In Clinic Visit (Day 12), Mean (SD)” value [1] was 1.067 (0.9074). The “SHAQ Visual Analog Scale-Pain, In Clinic Visit (Day 12), Median” value [1] was 0.700, the “SHAQ Visual Analog Scale-Pain, In Clinic Visit (Day 12), Min” value [1] was 0.40 and the “SHAQ Visual Analog Scale-Pain, In Clinic Visit (Day 12), Q1” value [1] was 0.400. For the same molecule, the “SHAQ Visual Analog Scale-Pain, In Clinic Visit (Day 12), Q3” value [1] was 2.100, the “SHAQ Visual Analog Scale-Pain, Percent Change from Baseline, Max” value [1] was −48.8% and the “SHAQ Visual Analog Scale-Pain, Percent Change from Baseline, Mean (SD)” value [1] was −52.56 (3.454) %. The “SHAQ Visual Analog Scale-Pain, Percent Change from Baseline, Median” value [1] was −53.33%, the “SHAQ Visual Analog Scale-Pain, Percent Change from Baseline, Min” value [1] was −55.6% and the “SHAQ Visual Analog Scale-Pain, Percent Change from Baseline, Q1” value [1] was −55.56%. The “SHAQ Visual Analog Scale-Pain, Percent Change from Baseline, Q3” value [1] was −48.78%, the “SHAQ Visual Analog Scale-Raynaud's, Change from Baseline, Max” value [1] was −0.30 and the “SHAQ Visual Analog Scale-Raynaud's, Change from Baseline, Median” value [1] was −1.100. The “SHAQ Visual Analog Scale-Raynaud's, Change from Baseline, Min” value [1] was −2.40, the “SHAQ Visual Analog Scale-Raynaud's, Change from Baseline, Q1” value [1] was −2.400 and the “SHAQ Visual Analog Scale-Raynaud's, Change from Baseline, Q3” value [1] was −0.300. For the same molecule, the “SHAQ Visual Analog Scale-Raynaud's, In Clinic Visit (Day 12), Max” value [1] was 1.40, the “SHAQ Visual Analog Scale-Raynaud's, In Clinic Visit (Day 12), Mean (SD)” value [1] was 1.033 (0.4041) and the “SHAQ Visual Analog Scale-Raynaud's, In Clinic Visit (Day 12), Median” value [1] was 1.100. For the same molecule, the “SHAQ Visual Analog Scale-Raynaud's, In Clinic Visit (Day 12), Min” value [1] was 0.60, the “SHAQ Visual Analog Scale-Raynaud's, In Clinic Visit (Day 12), Q1” value [1] was 0.600 and the “SHAQ Visual Analog Scale-Raynaud's, In Clinic Visit (Day 12), Q3” value [1] was 1.400. For the same molecule, the “SHAQ Visual Analog Scale-Raynaud's, Percent Change from Baseline, Max” value [1] was −33.3%, the “SHAQ Visual Analog Scale-Raynaud's, Percent Change from Baseline, Mean (SD)” value [1] was −48.63 (18.070) % and the “SHAQ Visual Analog Scale-Raynaud's, Percent Change from Baseline, Median” value [1] was −44.00%. For the same molecule, the “SHAQ Visual Analog Scale-Raynaud's, Percent Change from Baseline, Min” value [1] was −68.6%, the “SHAQ Visual Analog Scale-Raynaud's, Percent Change from Baseline, Q1” value [1] was −68.57% and the “SHAQ Visual Analog Scale-Raynaud's, Percent Change from Baseline, Q3” value [1] was −33.33%. The “SHAQ alternative disability index, Change from Baseline, Max” value [1] was 0.00, the “SHAQ alternative disability index, Change from Baseline, Mean (SD)” value [1] was −0.083 (0.0722) and the “SHAQ alternative disability index, Change from Baseline, Median” value [1] was −0.125. The “SHAQ alternative disability index, Change from Baseline, Min” value [1] was −0.13, the “SHAQ alternative disability index, Change from Baseline, Q1” value [1] was −0.125 and the “SHAQ alternative disability index, Change from Baseline, Q3” value [1] was 0.000. For the same molecule, the “SHAQ alternative disability index, In Clinic Visit (Day 12), Max” value [1] was 0.25, the “SHAQ alternative disability index, In Clinic Visit (Day 12), Mean (SD)” value [1] was 0.125 (0.1250) and the “SHAQ alternative disability index, In Clinic Visit (Day 12), Median” value [1] was 0.125. The “SHAQ alternative disability index, In Clinic Visit (Day 12), Min” value [1] was 0.00, the “SHAQ alternative disability index, In Clinic Visit (Day 12), Q1” value [1] was 0.000 and the “SHAQ alternative disability index, In Clinic Visit (Day 12), Q3” value [1] was 0.250. The “SHAQ alternative disability index, Percent Change from Baseline, Max” value [1] was −33.3%, the “SHAQ alternative disability index, Percent Change from Baseline, Mean (SD)” value [1] was −41.67 (11.785) % and the “SHAQ alternative disability index, Percent Change from Baseline, Median” value [1] was −41.67%. The “SHAQ alternative disability index, Percent Change from Baseline, Min” value [1] was −50.0%, the “SHAQ alternative disability index, Percent Change from Baseline, Q1” value [1] was −50.00% and the “SHAQ alternative disability index, Percent Change from Baseline, Q3” value [1] was −33.33%. The “mean decrease in patient reported disease severity on the SHAQ” value (pooled cilnidipine 10 mg or 20 mg (n=7)) was 60%.
